Measurements reported in patent US20260108546A1 (ELI LILLY AND COMPANY, priority 2024, published 2026).
Counter-ions that a name gives are not always drawn.

Molecular target: T1, hGIP-R (Homo sapiens, UniProt P48546)
T1 construct: expressed in transfected cells; host or cells: HEK-293 clonal cell lines
T1 sequence (P48546 22-466): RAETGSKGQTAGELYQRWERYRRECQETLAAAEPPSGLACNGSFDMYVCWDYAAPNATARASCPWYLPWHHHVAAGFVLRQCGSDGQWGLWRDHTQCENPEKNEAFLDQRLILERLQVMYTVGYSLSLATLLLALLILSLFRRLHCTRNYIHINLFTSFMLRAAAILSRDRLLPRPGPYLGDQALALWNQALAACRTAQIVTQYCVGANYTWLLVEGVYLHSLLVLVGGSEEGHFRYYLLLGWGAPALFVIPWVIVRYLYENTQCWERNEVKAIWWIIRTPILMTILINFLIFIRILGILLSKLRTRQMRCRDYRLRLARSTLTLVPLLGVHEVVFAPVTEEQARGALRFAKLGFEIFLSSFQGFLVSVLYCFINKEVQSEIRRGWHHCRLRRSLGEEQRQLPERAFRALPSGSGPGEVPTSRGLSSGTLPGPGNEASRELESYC
Assay: Functional hGIP-R Assay (cAMP formation, HTRF)
Type: cell-based
Details: for Emax: cAMP efficacy, percent of maximal response to GIP(1-42)OH, 37° C., 0.1% bovine casein, arithmetic mean ± SEM; for EC50: cAMP potency, HEK-293 cells expressing hGIP-R, incubated at 37° C. in the presence of 0.1% bovine casein, geometric mean, read-out: Human GIP-R EC50, nM (SEM, n)
Experimental: Functional activity was determined using CAMP formation in HEK-293 clonal cell lines expressing hGIP-R. hGIP-R receptor expressing cells were treated with compound (20 point concentration-response curve in DMSO, 2-fold Labcyte Echo direct dilution, 384 well plate Corning Cat #3570) in DMEM (Gibco Cat #31053) supplemented with 1× GlutaMAX™ (Gibco Cat #35050), 0.1% bovine casein (Sigma C4765-10ML), 250 μM IBMX (3-Isobutyl-1-methylxanthine, Acros Cat #228420010) and 20 mM HEPES (Gibco Cat #15630) in a 20 μL assay volume (final DMSO concentration was 1%). After a 30 min incubation at 37° C., the resulting increase in intracellular cAMP was quantitatively determined using the Revvity CAMP Dynamic 2 HTRF Assay Kit (62AM4PEJ). Briefly, cAMP levels within the cell were detected by adding the cAMP-d2 conjugate in cell lysis buffer (10 μL) followed by the antibody anti-cAMP-Eu^3+-Cryptate, also in cell lysis buffer (10 μL). The resulting competitive assay was incubated for at least 60 min at RT, then detected using a BMG Labtech PHERAstar FSX instrument with excitation at 320 nm and emission at 665 nm and 620 nm. PHERAstar units (emission at 665 nm/620 nm*10,000) are inversely proportional to the amount of cAMP present and were converted to nM cAMP per well using a CAMP standard curve. The amount of cAMP generated (nM) in each well was converted to a percent of the maximal response observed with human GIP (1-42) OH. A relative EC50 value and percent top (Emax) were derived by non-linear regression analysis using the percent maximal response vs. the concentration of compound added, fitted to a four-parameter logistic equation.

Structure (SMILES) | Emax [%] | EC50 [nM]
Cc1nc(-c2cnc3nc(C4CC4)cn3c2)ccc1[C@H]1C[C@@]12CCN([C@H](Cc1cnn(C(F)F)c1)C(=O)NC(C)(C)Cn1nc(C(F)(F)F)cc1-c1ccc(C(C)(C)OP(=O)(O)O)nc1)C2=O [Example 197, 2-(5-(1-(2-((R)-2-((1R,3R)-1-(6-(2-Cyclopropylimidazo[1,2-a]pyrimidin-6-yl)-2-methylpyridin-3-yl)-4-oxo-5-azaspiro[2.4]heptan-5-yl)-3-(1-(difluoromethyl)-1H-pyrazol-4-yl)propanamido)-2-methylpropyl)-3-(trifluoromethyl)-1H-pyrazol-5-yl)pyridin-2-yl)propan-2-yl dihydrogen phosphate, ammonia salt] | 119 | 0.66
CN1CC2C=C(c3ccc([C@H]4C[C@@]45CCN([C@H](Cc4cnn(C(F)F)c4)C(=O)NC(C)(C)Cn4nc(C(F)(F)F)cc4-c4cnc(C(F)(F)F)nc4)C5=O)cc3)C=NC2C1=O (single isomer, unassigned; isomer 1) [Example 103] | 73.3 ± 6.2 | 99.6
Cc1cn2cc(-c3ccc([C@H]4C[C@@]45CCN([C@H](Cc4cnn(C(F)F)c4)C(=O)NC(C)(C)Cn4nc(C(F)(F)F)cc4-c4cc(F)c(=O)n(C)c4)C5=O)c(F)c3)cnc2n1 [Example 100, (2R)-3-(1-(Difluoromethyl)-1H-pyrazol-4-yl)-N-(1-(5-(5-fluoro-1-methyl-6-oxo-1,6-dihydropyridin-3-yl)-3-(trifluoromethyl)-1H-pyrazol-1-yl)-2-methylpropan-2-yl)-2-((1S,3R)-1-(2-fluoro-4-(2-methylimidazo[1,2-a]pyrimidin-6-yl)phenyl)-4-oxo-5-azaspiro[2.4]heptan-5-yl)propanamide] | 70.9 ± 1.67 | 3.47
Cc1nc(-c2cnc3nc(C4CC4)cn3c2)ccc1[C@H]1C[C@@]12CCN([C@H](Cc1cnn(C(F)F)c1)C(=O)NC(C)(C)Cn1nc(C(F)(F)F)cc1-c1cc(F)c(=O)n(C)c1)C2=O [Example 170, (R)-2-((1R,3R)-1-(6-(2-cyclopropylimidazo[1,2-a]pyrimidin-6-yl)-2-methylpyridin-3-yl)-4-oxo-5-azaspiro[2.4]heptan-5-yl)-3-(1-(difluoromethyl)-1H-pyrazol-4-yl)-N-(1-(5-(5-fluoro-1-methyl-6-oxo-1,6-dihydropyridin-3-yl)-3-(trifluoromethyl)-1H-pyrazol-1-yl)-2-methylpropan-2-yl)propanamide] | 97.2 ± 0.998 | 0.846
Cn1cc(-c2cc(C(F)(F)F)nn2CC(C)(C)NC(=O)[C@@H](Cc2cnn(C(F)F)c2)NC(=O)[C@H]2C[C@@H]2c2nc3cnn(C)c3cc2F)cc(F)c1=O [Example 157, (1S,2S)-N-((R)-3-(1-(Difluoromethyl)-1H-pyrazol-4-yl)-1-((1-(5-(5-fluoro-1-methyl-6-oxo-1,6-dihydropyridin-3-yl)-3-(trifluoromethyl)-1H-pyrazol-1-yl)-2-methylpropan-2-yl)amino)-1-oxopropan-2-yl)-2-(6-fluoro-1-methyl-1H-pyrazolo[4,3-b]pyridin-5-yl)cyclopropane-1-carboxamide] | 16.5 ± 0.234 | 108
Cc1cn2cc(-c3ccc([C@H]4C[C@@]45CCN([C@H](Cc4cnn(C(F)F)c4)C(=O)NC(C)(C)Cn4nc(C(F)(F)F)cc4-c4ccn(C6CC6)c(=O)c4)C5=O)c(Cl)c3)cnc2n1 [Example 165, (R)-2-((1S,3R)-1-(2-chloro-4-(2-methylimidazo[1,2-a]pyrimidin-6-yl)phenyl)-4-oxo-5-azaspiro[2.4]heptan-5-yl)-N-(1-(5-(1-cyclopropyl-2-oxo-1,2-dihydropyridin-4-yl)-3-(trifluoromethyl)-1H-pyrazol-1-yl)-2-methylpropan-2-yl)-3-(1-(difluoromethyl)-1H-pyrazol-4-yl)propanamide] | 65.7 ± 4.25 | 0.44
